Source: ChEMBL document CHEMBL3608283, “Pyrrolopyridine or Pyrazolopyridine Derivatives” (ACS Med Chem Lett, 2015)
Changes are numbered by the printed parent chain.

Tests used:
[1] = target: T1, Muscarinic acetylcholine receptor M1 (Homo sapiens, UniProt P11229); assay: Positive allosteric modulation of human muscarinic M1 receptor expressed in CHO cells assessed as basal and acetylcholine-stimulated Ca2+ level by FLIPR assay; type: functional, cell-based
T1 sequence (P11229 whole entry): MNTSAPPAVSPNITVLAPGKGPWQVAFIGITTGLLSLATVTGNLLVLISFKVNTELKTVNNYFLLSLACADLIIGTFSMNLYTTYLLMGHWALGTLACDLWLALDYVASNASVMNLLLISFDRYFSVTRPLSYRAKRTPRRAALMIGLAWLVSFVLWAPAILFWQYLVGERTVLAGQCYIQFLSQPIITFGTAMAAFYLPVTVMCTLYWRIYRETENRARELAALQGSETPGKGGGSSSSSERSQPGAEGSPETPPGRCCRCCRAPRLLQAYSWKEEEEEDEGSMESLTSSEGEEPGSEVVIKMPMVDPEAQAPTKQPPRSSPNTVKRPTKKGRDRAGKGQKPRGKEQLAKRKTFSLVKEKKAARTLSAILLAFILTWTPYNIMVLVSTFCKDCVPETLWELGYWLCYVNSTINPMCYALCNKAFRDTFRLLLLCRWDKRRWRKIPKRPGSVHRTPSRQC

[2] = target: T2, Muscarinic acetylcholine receptor M1 (Rattus norvegicus, UniProt P08482); assay: Positive allosteric modulation of rat muscarinic M1 receptor expressed in CHO cells assessed as basal and acetylcholine-stimulated Ca2+ level by FLIPR assay; type: functional, cell-based
T2 sequence (P08482 whole entry): T1 sequence (P11229 whole entry) with A5V, T254S, P309S, R320K, A337G, I413V

Compound | EC50 [1] | EC50 [2]
Cn1cc(-c2ccc(Cn3cc(C(=O)N[C@H]4CCOC[C@@H]4O)c4ncccc43)c(F)c2)cn1 | 28.5 nM | 58.6 nM
Cn1cc(-c2ccc(Cn3cc(C(=O)N[C@H]4COCC[C@@H]4O)c4ncccc43)cc2)cn1 | 11.1 nM | 13.8 nM
Cn1cc(-c2ccc(Cn3cc(C(=O)N[C@H]4COCC[C@@H]4O)c4ncccc43)cc2F)cn1 | 15.5 nM | 18 nM
Cn1ncc2cc(Cn3cc(C(=O)N[C@H]4COCC[C@@H]4O)c4ncccc43)ccc21 | 71.5 nM | 162 nM
Cn1cc(-c2ccc(Cn3cc(C(=O)N[C@H]4CCOC[C@@]4(C)O)c4ncccc43)c(F)c2)cn1 | 47.9 nM | 63.2 nM
CNC(=O)c1ccc(Cn2cc(C(=O)N[C@H]3COCC[C@@H]3O)c3ncccc32)cc1 | 9.1 nM | 18 nM
Cn1cc(-c2ccc(Cn3cc(C(=O)N[C@H]4COCC[C@@H]4O)c4ncccc43)cn2)cn1 | 34.8 nM | 71.1 nM
